Experimental data from patent publication US9248119B2, “Modified release dosage forms of xanthine oxidoreductase inhibitor or xanthine oxidase inhibitors” (Takeda Pharmaceuticals U.S.A., Inc., priority 2010, dated 2016).

Test: clinical
Details: human, in vivo; for Vd/F: Vss/F
Method: The development of the previously described embodiments resulted from a long drug development process. […] The study was also designed to assess the pharmacokinetic and pharmacodynamic profiles of multiple daily oral doses over a range of doses and ranges, including both once-daily and twice-daily administration.
Samples were analyzed by high performance liquid chromatography.

Cc1nc(-c2ccc(OCC(C)C)c(C#N)c2)sc1C(=O)O [Febuxostat, 2-[3-cyano-4-(2-methylpropoxy)phenyl]-4-methylthiazole-5-carboxylic acid]
Vd: ~0.7 L/kg | half-life: ~6 h | Cmax (10 mg): 399.5 ng/mL | Tmax (10 mg): 0.70 h | Vss/F (10 mg): 42.7 L | AUC (10 mg, AUC (AUC24)): 950 ng·h/mL | AUC(0-inf) (10 mg): 727 ng·h/mL | Cmax (10 mg, Cmax): 336 ng/mL | Vd/F (10 mg): 38.2 L | Tmax (10 mg, tmax): 0.99 h | Cmax (20 mg): 934.2 ng/mL | Vss/F (20 mg): 33.3 L | AUC (20 mg, AUC (AUC24)): 2110 ng·h/mL | AUC(0-inf) (20 mg): 2180 ng·h/mL | Cmax (20 mg, Cmax): 1110 ng/mL | Vd/F (20 mg): 29.2 L | Tmax (20 mg, tmax): 1.06 h | AUC (AUC12) (30 mg): 3308.3 ng·h/mL | AUC (AUC∞) (30 mg): 2816.9 ng·h/mL | AUC (30 mg, AUC (AUC12)): 2910 ng·h/mL | AUC (30 mg, AUC (AUC24)): 2570 ng·h/mL | AUC(0-inf) (30 mg): 2550 ng·h/mL | Cmax (30 mg, Cmax): 1120 ng/mL | Cmax (40 mg): 1822.1 ng/mL | Vss/F (40 mg): 49.5 L | AUC (40 mg, AUC (AUC24)): 4300 ng·h/mL | AUC(0-inf) (40 mg): 3980 ng·h/mL | Cmax (40 mg, Cmax): 1530 ng/mL | Vd/F (40 mg): 48.7 L | Tmax (40 mg, tmax): 1.44 h | Cmax (50 mg): 1791.7 ng/mL | Vss/F (50 mg): 59.1 L | AUC (50 mg, AUC (AUC24)): 4380 ng·h/mL | AUC(0-inf) (50 mg): 4410 ng·h/mL | Cmax (50 mg, Cmax): 1970 ng/mL | Vd/F (50 mg): 43.2 L | Tmax (50 mg, tmax): 0.78 h | Cmax (70 mg): 2689.9 ng/mL | Vss/F (70 mg): 54.1 L | AUC (70 mg, AUC (AUC24)): 6950 ng·h/mL | AUC(0-inf) (70 mg): 6930 ng·h/mL | Cmax (70 mg, Cmax): 3080 ng/mL | Vd/F (70 mg): 41.6 L | Tmax (70 mg, tmax): 1 h | Cmax (90 mg): 4058.9 ng/mL | Vss/F (90 mg): 63.7 L | AUC (90 mg, AUC (AUC24)): 9650 ng·h/mL | AUC(0-inf) (90 mg): 9090 ng·h/mL | Cmax (90 mg, Cmax): 3480 ng/mL | Vd/F (90 mg): 56.7 L | Tmax (90 mg, tmax): 0.95 h | Cmax (120 mg): 5307.6 ng/mL | Vss/F (120 mg): 55.1 L | AUC (120 mg, AUC (AUC24)): 12000 ng·h/mL | AUC(0-inf) (120 mg): 11300 ng·h/mL | Cmax (120 mg, Cmax): 4470 ng/mL | Vd/F (120 mg): 57.8 L | Tmax (120 mg, tmax): 1 h | Cmax (160 mg): 8771.1 ng/mL | Vss/F (160 mg): 36.1 L | AUC (160 mg, AUC (AUC24)): 22300 ng·h/mL | AUC(0-inf) (160 mg): 20700 ng·h/mL | Cmax (160 mg, Cmax): 7300 ng/mL | Vd/F (160 mg): 40.7 L | Tmax (160 mg, tmax): 0.75 h | Cmax (180 mg): 8048.8 ng/mL | Tmax (180 mg): 1.00 h | Vss/F (180 mg): 45.6 L | AUC (180 mg, AUC (AUC24)): 24000 ng·h/mL | AUC(0-inf) (180 mg): 25600 ng·h/mL | Cmax (180 mg, Cmax): 8400 ng/mL | Vd/F (180 mg): 54.6 L | Tmax (180 mg, tmax): 1.07 h | Cmax (240 mg): 11263 ng/mL | Vss/F (240 mg): 31.3 L | AUC (240 mg, AUC (AUC24)): 35000 ng·h/mL | AUC(0-inf) (240 mg): 28300 ng·h/mL | Cmax (240 mg, Cmax): 8390 ng/mL | Vd/F (240 mg): 54.6 L | Tmax (240 mg, tmax): 1.06 h | oral clearance from the plasma (po): 7.3 to 15.1 L/h | Tmax (po, tmax): ~1 h
